From patent publication US20210330611A1, “THERAPY FOR NEUROLOGICAL DISEASES/DISORDERS” (priority 2020, published 2021)
“And” between values parts separate entries of the source, which are not always exact repeats. Identical values can stand only once. Counter-ions that a name gives are not always drawn. Like-named read-outs stand apart in the source and are kept apart here.

Tests used:
[1] = tested on: fibrin- and LPS-induced microglia activation; assay: cells; format: cell-based, rat
[2] = tested on: primary rat microglia
[3] = tested on: LPS-induced microglia activation; assay: Image-based assay of LPS-induced microglia activation (HTS and dose response); format: cell-based, rat; conditions: for inhibition at 10 µM: Rattus norvegicus, Microglia, read-out: LPS % inhibition
[4] = tested on: primary rat microglia; assay: Cell toxicity (dead cells, size <150 μm2) in coated fibrin (cFib) assay; conditions: primary microglia HTS;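 note: share of dead cells sized under 150 µm2 at 10 µM in fibrin-stimulated microglia HTS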
[5] = tested on: fibrin-induced microglia activation; assay: Image-based assay of fibrin-induced microglia activation (HTS and dose response); format: cell-based, rat; conditions: primary microglia HTS, fibrin stimulation; for inhibition at 10 µM: Rattus norvegicus, Microglia, read-out: Fibrin % inhibition
[6] = classification by fibrin and LPS inhibition, HTS at 10 μM
[7] = primary microglia HTS, LPS stimulation, compounds at 10 μM
[8] = fibrin assay, dead cells (size <150 μm2), compounds at 10 μM
[9] = classification by fibrin and LPS inhibition in HTS
[10] = fibrin stimulation, cell size <150 μm2 as marker of toxicity
[11] = cell size >800 μm2 as marker of activation
[12] = quadrant by fibrin and LPS inhibition, HTS at 10 μM
[13] = fibrin assay, dead cells (size <150 μm2)

Molecule	Quadrant (FIG. 5b) [1, 6]	LPS % cell toxicity ([2]; rat) [%]	inhibition at 10 µM [3, 7] [%]	Fibrin % cell toxicity [4, 8] [%]	inhibition at 10 µM ([5]; compounds at 10 μM) [%]	Quadrant (FIG. 5b) [1, 9]	inhibition at 10 µM ([3]; 48 h) [%]	Fibrin % cell toxicity [4, 10] [%]	inhibition at 10 µM [5, 11] [%]	Quadrant (FIG. 5b) [1, 12]	Fibrin % cell toxicity [4, 13] [%]	other results
CC1(C)OC(=O)NC1=O [Dimethadione]	Q4	0	14	1	-13	–	–	–	–	–	–	–
NC[C@@H]1O[C@H](O[C@H]2[C@@H](O)[C@H](O[C@@H]3[C@@H](O)[C@H](N)C[C@H](N)[C@H]3O[C@H]3O[C@H](CO)[C@@H](O)[C@H](O)[C@H]3N)O[C@@H]2CO)[C@H](N)[C@@H](O)[C@@H]1O [Paromomycin Sulfate]	–	0	–	–	–	Q4	14	1	9	–	–	–
C=CCOC(Cn1ccnc1)c1ccc(Cl)cc1Cl (stereo not drawn) [Enilconazole]	Q4	1	15	1	24	–	–	–	–	–	–	–
CCOc1cc(CC(=O)N[C@@H](CC(C)C)c2ccccc2N2CCCCC2)ccc1C(=O)O [Repaglinide]	–	0	–	–	–	Q4	18	1	-14	–	–	–
CC(CN1c2ccccc2Sc2ccccc21)N(C)C (stereo not drawn) [Promethazine]	–	0	–	–	–	Q4	5	0	-30	–	–	–
Nc1cc(-c2ccncc2)c[nH]c1=O [Amrinone, Inamrinone]	–	–	–	–	–	–	–	–	–	Q4	1	LPS % cell toxicity [2]: 0%; LPS % inhibition [3, 7]: 18%; Fibrin % inhibition ([5]; compounds at 10 μM): 1%
O=C(N/N=C/c1ccc([N+](=O)[O-])o1)c1ccc(O)cc1 [Nifuroxazide]	–	14	120	–	112	–	–	–	–	Q2	6	–
O=C(CCCl)NCCc1ccccc1 [Fenaclon]	Q4	0	16	1	8	–	–	–	–	–	–	–
NCC(O)CC(=O)O (stereo not drawn) [Aminohydroxybutyric Acid]	–	–	–	–	–	–	–	–	–	Q4	1	LPS % cell toxicity [2]: 0%; LPS % inhibition [3, 7]: 17%; Fibrin % inhibition ([5]; compounds at 10 μM): −4%
C#C[C@]1(O)CC[C@H]2[C@@H]3CCc4cc(OC5CCCC5)ccc4[C@H]3CC[C@@]21C [Quinestrol]	–	0	–	–	–	Q4	24	0	15	–	–	–
O=C1OC2(c3ccccc31)c1cc(I)c(O)c(I)c1Oc1c2cc(I)c(O)c1I [Erythrosine Sodium]	Q4	0	0	1	1	–	–	–	–	–	–	–
CC(=O)OCC(CCn1cnc2cnc(N)nc21)COC(C)=O [Famciclovir]	Q4	1	14	0	-22	–	–	–	–	–	–	–
C[C@H]1COc2c(C3(N)CC3)c(F)cc3c(=O)c(C(=O)O)cn1c23 [Pazufloxacin Mesylate, Pazufloxacin]	–	–	–	–	–	Q4	–	1	–	–	–	LPS % cell toxicity [2]: 0%; LPS % inhibition [3]: 11%; Fibrin % inhibition [5, 11]: −10%
CCOc1ccc2nc3cc(N)ccc3c(N)c2c1 [Ethacridine Lactate]	Q4	0	-8	1	-64	–	–	–	–	–	–	–
CC(=O)Oc1cccc2c1C(=O)c1c(OC(C)=O)cc(C(=O)O)cc1C2=O [Diacerin]	Q4	–	–	1	–	–	–	–	–	–	–	LPS % cell toxicity [2]: 0%; LPS % inhibition [3, 7]: 10%; Fibrin % inhibition ([5]; compounds at 10 μM): −30%
CC1(C)S[C@@H]2[C@H](NC(=O)COc3ccccc3)C(=O)N2[C@H]1C(=O)O [Phenoxymethylpenicillin]	–	0	–	–	–	Q4	14	1	0	–	–	–
CCC1(c2ccc(N)cc2)CCC(=O)NC1=O (racemic)	–	–	–	–	–	–	–	–	–	Q4	0	LPS % cell toxicity [2]: 0%; LPS % inhibition [3, 7]: 6%; Fibrin % inhibition ([5]; compounds at 10 μM): 3%
Cc1ccc(/N=C/N(C)/C=N/c2ccc(C)cc2C)c(C)c1 [Amitraz]	–	0	9	–	-18	–	–	–	–	Q4	0	–

Molecule	Quadrant (FIG. 5b) [1, 6]	LPS % cell toxicity ([2]; rat) [%]	inhibition at 10 µM [3, 7] [%]	Fibrin % cell toxicity [4, 8] [%]	inhibition at 10 µM ([5]; compounds at 10 μM) [%]	Quadrant (FIG. 5b) [1, 9]	inhibition at 10 µM ([3]; 48 h) [%]	Fibrin % cell toxicity [4, 10] [%]	inhibition at 10 µM [5, 11] [%]	Quadrant (FIG. 5b) [1, 12]	Fibrin % cell toxicity [4, 13] [%]	other results
CS(=O)(=O)c1ccc(C2=C(c3ccccc3)C(=O)OC2)cc1 [Rofecoxib]	–	0	–	–	–	Q4	14	0	15	–	–	–
Apramycin Sulfate	–	–	–	–	–	–	–	–	–	Q4	1	LPS % cell toxicity [2]: 1%; LPS % inhibition [3, 7]: 25%; Fibrin % inhibition ([5]; compounds at 10 μM): 11%
CC1=NN(c2ccccc2)C(=O)C1	–	–	–	–	–	–	–	–	–	Q4	1	LPS % cell toxicity [2]: 0%; LPS % inhibition [3, 7]: 15%; Fibrin % inhibition ([5]; compounds at 10 μM): −15%
Nc1nccs1 [Aminothiazole]	–	1	17	–	-31	–	–	–	–	Q4	1	–
CC(=O)NS(=O)(=O)c1ccc(NC(=O)c2ccccc2C(=O)O)cc1 [Phthalylsulfacetamide]	–	0	–	–	–	Q4	-1	1	1	–	–	–
C[Se]CC[C@H](N)C(=O)O [Selenomethionine]	–	0	–	–	–	Q4	10	1	-5	–	–	–
COc1ccc(C2C(=O)c3ccccc3C2=O)cc1 [Anisindione]	–	0	13	–	-15	–	–	–	–	Q4	0	–
CN1CCN(C(=O)O[C@H]2c3nccnc3C(=O)N2c2ccc(Cl)cn2)CC1 [Eszopiclone]	Q4	0	17	0	1	–	–	–	–	–	–	–
COc1ccc2c(c1)[C@]13CCCC[C@@H]1[C@H](C2)N(C)CC3 [Dextromethorphan]	Q4	0	–	1	–	–	–	–	–	–	–	LPS % inhibition ([3]; primary microglia HTS, LPS stimulation, compounds at 10 μM, 10 µM): 4% and −5%; Fibrin % inhibition ([5]; compounds at 10 μM, 10 µM): −18% and −20%
O=C1c2ccccc2C(=O)C1c1ccccc1 [Phenindione]	–	0	–	–	–	Q4	0	1	-10	–	–	–
C1CCc2nnnn2CC1 [Pentetrazole, Pentylenetetrazol]	–	–	–	–	–	Q4	–	1	–	–	–	LPS % cell toxicity [2]: 1%; LPS % inhibition [3]: 18%; Fibrin % inhibition [5, 11]: −12%
Nc1nc(N)nc(NC2CC2)n1 [Cyromazine]	Q4	0	9	1	-9	–	–	–	–	–	–	–
NC(=O)c1ccc([N+](=O)[O-])cc1Cl [Aklomide]	–	0	-2	–	-18	–	–	–	–	Q4	0	–
N=C(N)c1ccc(/N=N/Nc2ccc(C(=N)N)cc2)cc1 [Diminazene]	Q4	0	11	0	-58	–	–	–	–	–	–	–
c1ccc2c(c1)Nc1ccccc1S2 [Phenothiazine]	–	1	–	–	–	Q4	24	0	-84	–	–	–
CCOC(=O)CCC(=O)O[C@H]1[C@H](O[C@@H]2[C@@H](C)[C@H](O[C@H]3C[C@@](C)(OC)[C@@H](O)[C@H](C)O3)[C@@H](C)C(=O)O[C@H](CC)[C@@](C)(O)[C@H](O)[C@@H](C)C(=O)[C@H](C)C[C@@]2(C)O)O[C@H](C)C[C@@H]1N(C)C [Erythromycin Ethylsuccinate]	Q4	0	14	0	-14	–	–	–	–	–	–	–
O=c1cc[nH]c(=S)[nH]1 [2-thiouracil]	–	0	7	–	-15	–	–	–	–	Q4	1	–
CN(C)[C@@H]1C(O)=C(C(=O)NCN2CCCC2)C(=O)[C@@]2(O)C(O)=C3C(=O)c4c(O)cccc4[C@@](C)(O)[C@H]3C[C@@H]12 [Rolitetracycline]	–	0	–	–	–	Q4	9	1	4	–	–	–
